# Read-outs that look alike come from different tables or passages of the source.
# Key:
# [1] = biological target: T1, Human Calpain 1/NS1 (Homo sapiens, UniProt P07384); assay: Calpain inhibition continuous fluorescence (FRET) assay, Human Calpain 1/NS1; assay type: biochemical; details: read-out: Human Calpain 1/NS1 IC50
# T1 sequence (P07384 1-714): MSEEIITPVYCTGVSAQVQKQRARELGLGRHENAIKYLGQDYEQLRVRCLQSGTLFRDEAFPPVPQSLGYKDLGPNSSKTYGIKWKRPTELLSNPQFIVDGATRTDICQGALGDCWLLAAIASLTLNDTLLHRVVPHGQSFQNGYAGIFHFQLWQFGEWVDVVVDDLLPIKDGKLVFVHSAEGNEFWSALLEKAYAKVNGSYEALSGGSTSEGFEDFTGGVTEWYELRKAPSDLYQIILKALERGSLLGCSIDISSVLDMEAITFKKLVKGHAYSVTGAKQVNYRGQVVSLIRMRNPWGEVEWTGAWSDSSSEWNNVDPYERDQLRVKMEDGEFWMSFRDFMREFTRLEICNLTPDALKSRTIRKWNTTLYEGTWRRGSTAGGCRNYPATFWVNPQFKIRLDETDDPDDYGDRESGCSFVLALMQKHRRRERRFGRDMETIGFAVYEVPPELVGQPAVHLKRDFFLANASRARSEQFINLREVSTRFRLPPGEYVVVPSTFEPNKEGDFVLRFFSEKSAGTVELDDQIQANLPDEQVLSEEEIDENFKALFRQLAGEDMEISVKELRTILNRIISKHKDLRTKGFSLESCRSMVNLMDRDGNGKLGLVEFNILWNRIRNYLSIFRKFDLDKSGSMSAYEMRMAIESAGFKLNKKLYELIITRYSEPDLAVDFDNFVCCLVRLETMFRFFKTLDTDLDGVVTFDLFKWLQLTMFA
# T1 sequence (P04632 1-268 partner): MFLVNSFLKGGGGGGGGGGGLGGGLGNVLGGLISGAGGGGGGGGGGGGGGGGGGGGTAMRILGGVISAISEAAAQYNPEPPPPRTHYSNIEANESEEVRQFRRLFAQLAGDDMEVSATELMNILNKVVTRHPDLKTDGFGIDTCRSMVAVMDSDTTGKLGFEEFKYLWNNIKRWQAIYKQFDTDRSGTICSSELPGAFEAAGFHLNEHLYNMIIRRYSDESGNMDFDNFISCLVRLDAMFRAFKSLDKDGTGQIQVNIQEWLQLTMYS
# How it was run: (§1)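 Continuous FRET read (ex 490/em 520 nm, 10 min) of calpain 1, 2 or 9 cleaving an internally quenched 5-FAM peptide, triggered by substrate with CaCl2 after enzyme–inhibitor incubation at ambient 25 °C, pH 7.5 Tris/NaCl/DTT buffer. IC50 from initial rates (1-5 min) via 4-parameter fit.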
# [2] = biological target: T2, Human Calpain 2/NS1 (Homo sapiens, UniProt P17655); assay: Calpain inhibition continuous fluorescence (FRET) assay, Human Calpain 2/NS1; assay type: biochemical; details: read-out: Human Calpain 2/NS1 IC50
# T2 sequence (P17655 1-700): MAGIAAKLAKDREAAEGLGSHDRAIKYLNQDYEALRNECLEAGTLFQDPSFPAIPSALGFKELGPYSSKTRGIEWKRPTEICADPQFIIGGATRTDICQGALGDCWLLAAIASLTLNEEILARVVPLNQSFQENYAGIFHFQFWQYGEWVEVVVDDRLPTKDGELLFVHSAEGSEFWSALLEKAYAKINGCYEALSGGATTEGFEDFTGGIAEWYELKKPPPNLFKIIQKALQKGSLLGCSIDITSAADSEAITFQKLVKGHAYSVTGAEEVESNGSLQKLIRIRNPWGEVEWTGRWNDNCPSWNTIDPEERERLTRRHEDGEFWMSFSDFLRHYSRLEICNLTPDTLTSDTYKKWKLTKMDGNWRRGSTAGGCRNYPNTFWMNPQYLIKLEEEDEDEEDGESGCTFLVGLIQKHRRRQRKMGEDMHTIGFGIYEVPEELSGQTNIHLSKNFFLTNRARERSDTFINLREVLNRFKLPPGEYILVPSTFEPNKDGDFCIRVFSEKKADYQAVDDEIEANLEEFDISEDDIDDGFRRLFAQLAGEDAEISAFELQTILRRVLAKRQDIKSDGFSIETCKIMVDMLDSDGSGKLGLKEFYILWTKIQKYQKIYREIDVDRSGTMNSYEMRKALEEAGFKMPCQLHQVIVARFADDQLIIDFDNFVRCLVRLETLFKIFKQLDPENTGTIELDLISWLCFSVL
# T2 sequence (P04632 1-268 partner): T1 sequence (P04632 1-268 partner)
# How it was run: as §1
# [3] = biological target: T3, Human Calpain 9/NS1 (Homo sapiens, UniProt O14815); assay: Calpain inhibition continuous fluorescence (FRET) assay, Human Calpain 9/NS1; assay type: biochemical; details: read-out: Human Calpain 9/NS1 IC50
# T3 sequence (O14815 1-690): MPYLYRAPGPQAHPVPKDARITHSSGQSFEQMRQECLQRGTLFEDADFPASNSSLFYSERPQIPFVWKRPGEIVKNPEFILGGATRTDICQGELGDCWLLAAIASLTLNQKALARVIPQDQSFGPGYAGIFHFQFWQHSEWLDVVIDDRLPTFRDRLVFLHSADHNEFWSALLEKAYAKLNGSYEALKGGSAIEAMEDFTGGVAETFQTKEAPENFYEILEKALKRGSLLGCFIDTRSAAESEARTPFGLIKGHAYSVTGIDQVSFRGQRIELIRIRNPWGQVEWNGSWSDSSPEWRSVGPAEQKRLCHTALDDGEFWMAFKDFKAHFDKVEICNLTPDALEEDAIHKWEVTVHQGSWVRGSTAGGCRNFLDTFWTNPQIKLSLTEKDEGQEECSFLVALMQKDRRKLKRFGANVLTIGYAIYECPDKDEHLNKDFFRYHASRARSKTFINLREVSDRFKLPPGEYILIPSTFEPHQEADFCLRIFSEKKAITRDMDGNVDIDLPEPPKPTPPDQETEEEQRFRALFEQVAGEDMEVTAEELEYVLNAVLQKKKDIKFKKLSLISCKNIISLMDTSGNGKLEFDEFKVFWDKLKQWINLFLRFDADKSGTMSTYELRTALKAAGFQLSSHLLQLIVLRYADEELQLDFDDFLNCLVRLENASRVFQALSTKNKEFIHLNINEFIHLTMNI
# T3 sequence (P04632 1-268 partner): T1 sequence (P04632 1-268 partner)
# How it was run: as §1
# [4] = system: Calpain activity in SH-SY5Y cells (SBDP-150); assay: SH-SY5Y Spectrin western blot assay (SBDP-150 breakdown product, A23187-induced); assay type: cell-based; details: SH-SY5Y cells, read-out: SH-SY5Y Spectrin IC50
# [5] = system: Calpain activity in SH-SY5Y cells; assay: SH-SY5Y + AMC fluorescence assay (Suc-LLVY-AMC substrate); assay type: cell-based; details: read-out: SH-SY5Y + AMC IC50
# [6] = Homo sapiens, A23187-induced SBDP-150, western blot
# [7] = Homo sapiens, Column D, A23187-induced SBDP-150
Molecule,IC50 [1],IC50 [2],IC50 [3],"IC50 [4, 6]",IC50 [5],IC50 ([1]; Column A),IC50 ([2]; Column B),IC50 ([3]; Column C),"IC50 [4, 7]",IC50 ([5]; Column E),"IC50 ([4]; A23187-induced SBDP-150, western blot)"
"NC(=O)C(=O)C(Cc1ccccc1)NC(=O)c1nsnc1-c1cccc(F)c1F (stereo not shown) [Compound 372, N-(4-amino-3,4-dioxo-1-phenylbutan-2-yl)-4-(2,3-difluorophenyl)-1,2,5-thiadiazole-3-carboxamide]",< 3 µM,< 3 µM,< 3 µM,< 10 µM,< 10 µM,,,,,,
"Cc1cc(C)cc(C[C@H](NC(=O)c2oc(C)nc2-c2ccccc2)C(=O)C(N)=O)c1 [Compound 388, (S)—N-(4-amino-1-(3,5-dimethylphenyl)-3,4-dioxobutan-2-yl)-2-methyl-4-phenyloxazole-5-carboxamide]",< 3 µM,< 3 µM,< 3 µM,< 10 µM,10 to 25 µM,,,,,,
"Cc1cncc(-c2nn(C(F)F)cc2C(=O)NC(Cc2ccccc2)C(=O)C(N)=O)c1 (stereo not shown) [Compound 582, N-(4-amino-3,4-dioxo-1-phenylbutan-2-yl)-1-(difluoromethyl)-3-(5-methylpyridin-3-yl)-1H-pyrazole-4-carboxamide]",< 3 µM,< 3 µM,< 3 µM,< 10 µM,10 to 25 µM,,,,,,
"COCCOCCOc1cccc(-n2nc(C)cc2C(=O)NC(Cc2ccccc2)C(=O)C(N)=O)c1 (stereo not shown) [Compound 444, N-(4-amino-3,4-dioxo-1-phenylbutan-2-yl)-1-(3-(2-(2-methoxyethoxy)ethoxy)phenyl)-3-methyl-1H-pyrazole-5-carboxamide]",< 3 µM,< 3 µM,< 3 µM,10 to 25 µM,< 10 µM,,,,,,
"CCc1cc(C(=O)N[C@@H](Cc2ccccc2)C(=O)C(N)=O)n(-c2ccccc2)n1 [Compound 33, (S)—N-(4-amino-3,4-dioxo-1-phenylbutan-2-yl)-3-ethyl-1-phenyl-1H-pyrazole-5-carboxamide]",,,,,,< 3 µM,< 3 µM,< 3 µM,< 10 µM,< 10 µM,
"CCn1cc(C(=O)NC(Cc2ccccc2)C(=O)C(N)=O)c(-c2ccccc2F)n1 (stereo not shown) [Compound 469, N-(4-amino-3,4-dioxo-1-phenylbutan-2-yl)-1-ethyl-3-(2-fluorophenyl)-1H-pyrazole-4-carboxamide]",< 3 µM,< 3 µM,< 3 µM,10 to 25 µM,< 10 µM,,,,,,
"C#Cc1nccc(-n2nc(C)cc2C(=O)NC(Cc2ccccc2)C(=O)C(N)=O)n1 (stereo not shown) [Compound 432, N-(4-amino-3,4-dioxo-1-phenylbutan-2-yl)-1-(2-ethynylpyrimidin-4-yl)-3-methyl-1H-pyrazole-5-carboxamide]",< 3 µM,< 3 µM,< 3 µM,< 10 µM,< 10 µM,,,,,,
"Cc1nc(-c2ccccc2)c(C(=O)N[C@@H](Cc2c[nH]c3ccccc23)C(=O)C(N)=O)o1 [Compound 389, (S)—N-(4-amino-1-(1H-indol-3-yl)-3,4-dioxobutan-2-yl)-2-methyl-4-phenyloxazole-5-carboxamide]",< 3 µM,< 3 µM,< 3 µM,< 10 µM,< 10 µM,,,,,,
"CC(=O)NCc1cccc(-n2nc(C)cc2C(=O)N[C@@H](Cc2ccccc2)C(=O)C(N)=O)c1 [Compound 143, (S)-1-(3-(acetamidomethyl)phenyl)-N-(4-amino-3,4-dioxo-1-phenylbutan-2-yl)-3-methyl-1H-pyrazole-5-carboxamide]",,,,,,< 3 µM,< 3 µM,< 3 µM,10 to 25 µM,< 10 µM,
"NC(=O)C(=O)C(Cc1ccccc1)NC(=O)c1nsnc1-c1ccc(CNC(=O)c2ccc(F)cc2)cc1 (stereo not shown) [Compound 363, N-(4-amino-3,4-dioxo-1-phenylbutan-2-yl)-4-(4-((4-fluorobenzamido)methyl)phenyl)-1,2,5-thiadiazole-3-carboxamide]",< 3 µM,< 3 µM,< 3 µM,< 10 µM,> 25 µM,,,,,,
"Cc1nnn(-c2ccccc2)c1C(=O)N[C@@H](Cc1ccccc1)C(=O)C(N)=O [Compound 55, (S)—N-(4-amino-3,4-dioxo-1-phenylbutan-2-yl)-4-methyl-1-phenyl-1H-1,2,3-triazole-5-carboxamide]",,,,,,< 3 µM,< 3 µM,< 3 µM,< 10 µM,> 25 µM,
"NC(=O)C(=O)C(Cc1c[nH]c2ccccc12)NC(=O)c1nsnc1-c1ccccc1 (stereo not shown) [Compound 532, N-(4-amino-1-(1H-indol-3-yl)-3,4-dioxobutan-2-yl)-4-phenyl-1,2,5-thiadiazole-3-carboxamide]",< 3 µM,< 3 µM,< 3 µM,< 10 µM,< 10 µM,,,,,,
"N-(4-amino-3-hydroxy-4-oxo-1-phenylbutan-2-yl)-4-(4-((benzyloxy)methyl)phenyl)-1,2,5-thiadiazole-3-carboxamide [Compound 369]",< 3 µM,< 3 µM,< 3 µM,,> 25 µM,,,,,,< 10 µM
"Cc1cc(C(=O)NC(Cc2ccccc2)C(=O)C(N)=O)n(-c2ncccn2)n1 (stereo not shown) [Compound 351, N-(4-amino-3,4-dioxo-1-phenylbutan-2-yl)-3-methyl-1-(pyrimidin-2-yl)-1H-pyrazole-5-carb oxamide]",< 3 µM,< 3 µM,< 3 µM,10 to 25 µM,< 10 µM,,,,,,

# Source: patent publication US11339130B1 (Blade Therapeutics, Inc., priority 2016, dated 2022)
